From the OligoGym collection
“And” between values parts separate entries of the source, which are not always exact repeats. Equal entries are not always repeated. After the bases stand the sugars from the 5' end (letter, count) and the backbone: PS all phosphorothioate, else s phosphorothioate and o phosphodiester by linkage. Methylation of C is not given here. e = 2'-O-(2-methoxyethyl) (MOE); k = constrained ethyl (cEt); d = 2'-deoxy (DNA)

Molecular target: SOD1
Conditions: ASO

“TTTATTCACAGGCTTGA (sugars e3 k2 d7 k2 e3, PS)” was tested. Which target mRNA inhibition (HepG2, 3 µM) did it give?
The target mRNA inhibition was 29%.

How did the target mRNA inhibition (HepG2, 5 µM) turn out when “GCGGCCAATGATGCAATGGT (sugars e5 d10 e5, PS)” was run?
Its target mRNA inhibition is 13%.

For “CAAAATACAGGTCATTG (sugars e2 k2 d9 k2 e2, PS)”, which target mRNA inhibition (HepG2, 5 µM) is on record?
The target mRNA inhibition was 56%.

“ACACCTTCACTGGTCCA (sugars e3 k2 d7 k2 e3, PS)” was tested. Which target mRNA inhibition (HepG2, 3 µM) did it give?
The target mRNA inhibition was 20%.

How did the target mRNA inhibition (HepG2, 4 µM) turn out when “GGCGATCCCAATTACAC (sugars e2 k2 d8 k2 e3, PS)” was run?
Its target mRNA inhibition is 33%.

How did the target mRNA inhibition (HepG2, 3 µM) turn out when “CTACATCCAAGGGAATG (sugars e3 k2 d7 k2 e3, PS)” was run?
Its target mRNA inhibition is 40%.

“GCTTTTTCATGGACCAC (sugars e3 k2 d7 k2 e3, PS)” was tested. Which target mRNA inhibition (HepG2, 3 µM) did it give?
The target mRNA inhibition was 71%.

Which target mRNA inhibition (HepG2, 4 µM) does the source give for “CGATCCCAATTACACCA (sugars e2 k2 d9 k2 e2, PS)” here?
The target mRNA inhibition was 59%.

Which target mRNA inhibition (A431, 0.12 µM) does the source give for “ACAGTGTTTAATGTTTA (sugars e3 k2 d7 k2 e3, linkages s1 o2 s9 o2 s2)” here?
Its target mRNA inhibition is 12%.

What about the target mRNA inhibition (A431, 0.6 µM) of the same sequence?
The target mRNA inhibition was 26%.

What about the target mRNA inhibition (A431, 3 µM) of the same sequence?
The target mRNA inhibition was 45%.

And the target mRNA inhibition (A431, 15 µM)?
The target mRNA inhibition was 47%.

What about the target mRNA inhibition (HepG2, 0.222 µM) of the same sequence?
The target mRNA inhibition was 51%.

And the target mRNA inhibition (HepG2, 0.667 µM)?
Its target mRNA inhibition is 70%.

What about the target mRNA inhibition (HepG2, 2 µM) of the same sequence?
The target mRNA inhibition was 80%.

And the target mRNA inhibition (HepG2, 6 µM)?
The target mRNA inhibition was 74%.

How did the target mRNA inhibition (HepG2, 3 µM) turn out when “CCATGCAGGCCTTCAGT (sugars e3 k2 d7 k2 e3, PS)” was run?
The target mRNA inhibition was 21%.

What does the source list for “CAGGATAACAGATGAGT (sugars e3 k2 d7 k2 e3, PS)”?
target mRNA inhibition (HepG2, 0.1875 µM): 45%; target mRNA inhibition (HepG2, 0.75 µM): 72%; target mRNA inhibition (HepG2, 3 µM): 65% and 86%; target mRNA inhibition (HepG2, 12 µM): 92%

How did the target mRNA inhibition (HepG2, 3 µM) turn out when “AAAATACAGGTCATTGA (sugars e3 k2 d7 k2 e3, PS)” was run?
The target mRNA inhibition was 28%.

How did the target mRNA inhibition (HepG2, 3 µM) turn out when “ACTATACAAATCTTCCA (sugars e3 k2 d7 k2 e3, PS)” was run?
The target mRNA inhibition was 10%.

How did the target mRNA inhibition (HepG2, 5 µM) turn out when “ACTCATGAACATGGAATCCA (sugars e5 d10 e5, PS)” was run?
The target mRNA inhibition was 27% and 20%.

How did the target mRNA inhibition (HepG2, 5 µM) turn out when “GTTTCTCACTACAGGTACTT (sugars e5 d10 e5, PS)” was run?
The target mRNA inhibition was 30%.

For “TGTTTAATGTTTATCA (sugars kekeddddddddekek, linkages s1 o3 s8 o1 s2)”, which target mRNA inhibition (A431, 0.12 µM) is on record?
Its target mRNA inhibition is 6%.

What about the target mRNA inhibition (A431, 0.6 µM) of the same sequence?
Its target mRNA inhibition is 14%.

And the target mRNA inhibition (A431, 3 µM)?
The target mRNA inhibition was 15%.

What about the target mRNA inhibition (A431, 15 µM) of the same sequence?
Its target mRNA inhibition is 32%.

And the target mRNA inhibition (HepG2, 0.222 µM)?
Its target mRNA inhibition is 42%.

And the target mRNA inhibition (HepG2, 0.667 µM)?
The target mRNA inhibition was 54%.

And the target mRNA inhibition (HepG2, 2 µM)?
The target mRNA inhibition was 69%.

And the target mRNA inhibition (HepG2, 6 µM)?
The target mRNA inhibition was 86%.

How did the target mRNA inhibition (HepG2, 3 µM) turn out when “TTCATTTCCACCTTTGC (sugars e3 k2 d7 k2 e3, PS)” was run?
Its target mRNA inhibition is 33%.

With “CCACACCTTCACTGGTCCAT (sugars e5 d10 e5, PS)” as the sequence, how does the target mRNA inhibition (HepG2, 2 µM) read?
The target mRNA inhibition was 50%.

“GGCCAGACCTCCGCGCCTCG (sugars e5 d10 e5, PS)” was tested. Which target mRNA inhibition (HepG2, 4 µM) did it give?
The target mRNA inhibition was 49%.

How did the target mRNA inhibition (HepG2, 4 µM) turn out when “CTGGTTCCGAGGACTGCAAC (sugars e5 d10 e5, PS)” was run?
The target mRNA inhibition was 51%.

Which results are given for “CACCTTCACTGGTCCAT (sugars e3 k2 d7 k2 e3, PS)”?
target mRNA inhibition (HepG2, 0.1875 µM): 19%; target mRNA inhibition (HepG2, 0.75 µM): 39%; target mRNA inhibition (HepG2, 3 µM): 53% and 69%; target mRNA inhibition (HepG2, 12 µM): 88%

“CTGCAGGAGACTACGACGCA (sugars e5 d10 e5, PS)” was tested. Which target mRNA inhibition (HepG2, 4 µM) did it give?
Its target mRNA inhibition is 36%.

Which target mRNA inhibition (HepG2, 5 µM) does the source give for “TCATAATAAGTGCCATA (sugars e2 k2 d8 k2 e3, PS)” here?
The target mRNA inhibition was 28%.

Which target mRNA inhibition (HepG2, 3 µM) does the source give for “ATTACTTTCCTTCTGCT (sugars e3 k2 d7 k2 e3, PS)” here?
The target mRNA inhibition was 15%.

“CTTCAATAGACACATCG (sugars e3 k2 d7 k2 e3, PS)” was tested. Which target mRNA inhibition (HepG2, 3 µM) did it give?
Its target mRNA inhibition is 9%.

For “TCGCCCTTCAGCACGCA (sugars e3 k2 d7 k2 e3, PS)”, which target mRNA inhibition (HepG2, 3 µM) is on record?
The target mRNA inhibition was 31%.

“CTGACAAGTTTAATACC (sugars e3 k2 d7 k2 e3, PS)” was tested. Which target mRNA inhibition (HepG2, 3 µM) did it give?
Its target mRNA inhibition is 10%.

Which target mRNA inhibition (HepG2, 5 µM) does the source give for “CTTCCAAGTGATCATAA (sugars e2 k2 d8 k2 e3, PS)” here?
Its target mRNA inhibition is 40%.

What does the source list for “TTCCCCACACCTTCAC (sugars kekeddddddddekek, linkages s1 o3 s8 o1 s2)”?
target mRNA inhibition (A431, 0.12 µM): 4%; target mRNA inhibition (A431, 0.6 µM): 12%; target mRNA inhibition (A431, 3 µM): 5%; target mRNA inhibition (A431, 15 µM): 12%; target mRNA inhibition (HepG2, 0.222 µM): 6%; target mRNA inhibition (HepG2, 0.667 µM): 16%; target mRNA inhibition (HepG2, 2 µM): 20%; target mRNA inhibition (HepG2, 6 µM): 59%

For “TCCAAGGGAATGTTTAT (sugars e3 k2 d7 k2 e3, PS)”, which target mRNA inhibition (HepG2, 3 µM) is on record?
Its target mRNA inhibition is 32%.

How did the target mRNA inhibition (HepG2, 5 µM) turn out when “TTCTCACTACAGGTACT (sugars e2 k2 d8 k2 e3, PS)” was run?
The target mRNA inhibition was 26%.

With “CCTCAGACTACATCCAA (sugars e2 k2 d9 k2 e2, PS)” as the sequence, how does the target mRNA inhibition (HepG2, 0.1875 µM) read?
Its target mRNA inhibition is 11%.

What about the target mRNA inhibition (HepG2, 0.75 µM) of the same sequence?
Its target mRNA inhibition is 67%.

What about the target mRNA inhibition (HepG2, 3 µM) of the same sequence?
Its target mRNA inhibition is 89%.

What about the target mRNA inhibition (HepG2, 4 µM) of the same sequence?
Its target mRNA inhibition is 87%.

What about the target mRNA inhibition (HepG2, 12 µM) of the same sequence?
The target mRNA inhibition was 94%.

With “TTACACCACAAGCCAAACGA (sugars e5 d10 e5, PS)” as the sequence, how does the target mRNA inhibition (HepG2, 5 µM) read?
Its target mRNA inhibition is 24%.

Which target mRNA inhibition (HepG2, 5 µM) does the source give for “AGGTACTTTAAAGCAAC (sugars e2 k2 d8 k2 e3, PS)” here?
Its target mRNA inhibition is 35%.

Which target mRNA inhibition (HepG2, 3 µM) does the source give for “CCTTCTGCTCGAAATTG (sugars e3 k2 d7 k2 e3, PS)” here?
The target mRNA inhibition was 16%.

For “GGAATGTTTATTGGGCG (sugars e2 k2 d8 k2 e3, PS)”, which target mRNA inhibition (HepG2, 4 µM) is on record?
The target mRNA inhibition was 37%.

For “TCTTCATTTCCACCTTT (sugars e3 k2 d7 k2 e3, PS)”, which target mRNA inhibition (HepG2, 3 µM) is on record?
The target mRNA inhibition was 31%.

“TTAATGTTTATCAGGATA (sugars e5 d8 e5, linkages s1 o3 s9 o2 s2)” was tested. Which target mRNA inhibition (A431, 0.12 µM) did it give?
The target mRNA inhibition was 18%.

What about the target mRNA inhibition (A431, 0.6 µM) of the same sequence?
The target mRNA inhibition was 7%.

What about the target mRNA inhibition (A431, 3 µM) of the same sequence?
The target mRNA inhibition was 11%.

And the target mRNA inhibition (A431, 15 µM)?
Its target mRNA inhibition is 9%.

And the target mRNA inhibition (HepG2, 0.222 µM)?
The target mRNA inhibition was 0%.

What about the target mRNA inhibition (HepG2, 0.667 µM) of the same sequence?
The target mRNA inhibition was 17%.

And the target mRNA inhibition (HepG2, 2 µM)?
Its target mRNA inhibition is 47%.

What about the target mRNA inhibition (HepG2, 6 µM) of the same sequence?
The target mRNA inhibition was 72%.
